Test results reported in PMC6349869, “The palladacycle complex AJ-5 induces apoptotic cell death while reducing autophagic flux in rhabdomyosarcoma cells” (Cell Death Discovery, 2019).

Experiments:
Format in all cases: cell-based, human
SW1353 cells = test: MTT cell viability assay, SW1353 chondrosarcoma; details: 48 h
Method: (§1) RH30 human aRMS cells (kindly provided by Associate Professor Judith Davie, Southern Illinois University), AX-OH-1 human aRMS and FL-OH-1 human eRMS cells (kindly provided by Professor Stefan Bath, University of Cape Town) were cultured in Roswell Park Memorial Institute Medium (RPMI)-1640 (Sigma Aldrich, Missouri, USA). […] Cell morphology was monitored using an Olympus CKX41 inverted microscope (MSAC Ltd, UK) and imaged with an EVOS™ XL AMEX1000 Core Imaging System (Thermo Fisher Scientific, Massachusetts, USA).
(§2) Cells were seeded in 96-well plates and treated the next day with a range of AJ-5 concentrations (0.1–1.0 μM) or vehicle ([…]) for 48 h. Cell viability was measured using the 3-(4,5-dimethylthiazol-2-yl)-2,5-diphenyl-trazolium bromide (MTT) assay (11465007001; Sigma Aldrich) according to the manufacturer’s instructions. Mean cell viability was calculated as a percentage of the mean vehicle control. At least three independent experiments in quadruplicate were performed from which the half maximal inhibitory concentration (IC50) was determined using GraphPad Prism version 6.0 (GraphPad Software, California, USA). The selectivity index (SI) was determined by dividing the IC50 of a normal cell line by the IC50 of a cancer cell line.

FL-OH-1 cells = test: MTT cell viability assay, FL-OH-1; details: FL-OH-1 (eRMS), 48 h
Method: as §1, §2

[1] = test system: LC3II in RH30 and RD cells; test: LC3II western blotting; details: 0.1 µM or IC50, 24 and 48 h
Method: Cells were lysed at 4 °C in whole-cell lysis buffer (0.125 M Tris-HCl pH 6.8, 4% SDS, 0.2% glycerol, 0.1% β-mercaptoethanol and a pinch of bromophenol blue) and boiled for 10 min. Proteins were resolved by SDS-PAGE (6–15% gels) and transferred to Hybond ECL membranes (Amersham, UK). The membranes were incubated with primary antibodies: rabbit polyclonal antibodies to phospho-histone H2A.X (Ser139) (#2577), phospho-chk2 (Thr68) (#221), phospho-p38 MAPK (Thr180/Tyr182) (#9211), cleaved caspase-3 (Asp175) (#9661), PARP (#9542), caspase-9 (#9502), LC3B (#2775), p38 MAPK (#9212), rabbit monoclonal antibody to cleaved caspase-7 (Asp198) (D6H1) (#8438), mouse monoclonal antibodies to phospho-ATM (Ser1981) (D6H9) (#5883), Cyclin B1 (V152) (#4135), Caspase-8 (1C12) (#9746), SQSTM1/p62 (D5L7G) (#88588) from Cell Signaling Technology (Massachusetts, USA); mouse monoclonal antibody to p53 (DO-1) (sc-126), rabbit polyclonal antibodies to p21 (C-19) (sc-397), cyclin A (H-432) (sc-751), cyclin B1 (H-433)(sc-752), PARP-1 (H-250) (sc-7150) from Santa Cruz Biotechnology (Texas, USA); rabbit polyclonal antibody to p38 MAP kinase (M0800) from Sigma Aldrich. […] Densitometry readings were obtained using ImageJ v1.50i[58] and protein expression levels were represented as a ratio of protein of interest/p38 loading control normalized to the vehicletreated control sample where appropriate. […]

[2] = test system: RMS cells (RH30, AX-OH-1, RD, FL-OH-1); test: Clonogenic assay, RMS cells
Method: Cells were seeded in 6-well plates and treated the following day with IC50, ½ IC50, ¼ IC50 AJ-5 and vehicle. After 24 h, 800–4000 cells were seeded in 35 mm dishes in drug-free medium. Formation of colonies were monitored and after 7–21 days cells were fixed with 3:1 methanol:acetic acid and stained with 0.5% crystal violet (Sigma Aldrich) in 100% methanol. Colonies were imaged and percentage colony area was determined using ImageJ v1.50i[58] and the plugin ColonyArea[59]. Colony area was determined for each drug concentration and expressed as a percentage of vehicletreated control.

MG-63 cells = test: MTT cell viability assay, MG-63 osteosarcoma; details: 48 h
RD cells [3] = test: Autophagic flux by western blotting (p62; LC3II with bafilomycin A1), RD
Method: AJ-5, synthesized as previously described, was dissolved in dimethyl sulfoxide (DMSO) (D8418; Sigma Aldrich) to give a 5 mM AJ-5 stock which was stored at room temperature (RT) and used within 5 days. AJ-5 was diluted in cell culture medium to achieve the desired final concentration and a vehicle control (DMSO) of the same concentration was prepared simultaneously. Cells were treated at a confluency of 60%. For western blot experiments to determine autophagy flux, cells were treated with 200 nM bafilomycin A1 (B1793; Sigma Aldrich) for 2 h post AJ-5 treatment. Doxorubicin (z/26/0167; Teva Pharmaceutical Industries Ltd, Israel) was used as a positive control in Caspase-Glo experiments at a concentration of 0.5 µM.
Cells were lysed at 4 °C in whole-cell lysis buffer (0.125 M Tris-HCl pH 6.8, 4% SDS, 0.2% glycerol, 0.1% β-mercaptoethanol and a pinch of bromophenol blue) and boiled for 10 min. Proteins were resolved by SDS-PAGE (6–15% gels) and transferred to Hybond ECL membranes (Amersham, UK). […] Densitometry readings were obtained using ImageJ v1.50i[58] and protein expression levels were represented as a ratio of protein of interest/p38 loading control normalized to the vehicletreated control sample where appropriate. […]

aRMS and eRMS cells = test: MTT cell viability assay, RMS cell lines (summary statements); details: alveolar and embryonal RMS cells
Method: as §1, §2

RD cells [4] = test: MTT cell viability assay, RD; details: RD (eRMS), 48 h
Method: as §1, §2

Structure (SMILES): CC(C)c1cccc(C(C)C)c1[N+]1=Cc2cccc[c]2[Pd-2]1([Cl])[P+](CC[P+](c1ccccc1)(c1ccccc1)[Pd-2]1([Cl])[c]2ccccc2C=[N+]1c1c(C(C)C)cccc1C(C)C)(c1ccccc1)c1ccccc1 (stereo not shown) [AJ-5]
- IC50 (SW1353 cells): < 300 nM
- IC50 (FL-OH-1 cells): ≤ 200 nM
- LC3II protein level [1]: induced in both RMS cell lines in a time- and dose-dependent manner
- Colony formation at IC50 concentrations ([2]; 24 h treatment at IC50, colonies after 7–21 days): only a few or no RMS cell colonies formed
- Ability of RMS cells to survive and proliferate (colony area) ([2]; 24 h treatment with ¼ IC50, ½ IC50 or IC50, colonies after 7–21 days): significantly inhibits the ability of RMS cells to survive and proliferate
- IC50 (MG-63 cells): < 300 nM
- Autophagic flux judged by p62 levels (RD cells [3]; 0.1 µM or IC50, 24 and 48 h): increases autophagic flux
- LC3II in the presence of bafilomycin A1, compared with vehicle (RD cells [3]; IC50 24 h then 200 nM bafilomycin A1 2 h): negligible change in LC3II
- IC50 (aRMS and eRMS cells): ≤ 200 nM
- IC50 (RD cells [4]): ≤ 200 nM
